In article PMC12807480, “Protectin DX resolves fracture-induced postoperative pain in mice via neuronal signaling and GPR37-activated macrophage efferocytosis” (The Journal of Clinical Investigation, 2026):

Legend:
[1] = molecular target: T1, GPR37 (Homo sapiens, UniProt O15354); assay: lipid overlay dot blot: ligand-coated PVDF membrane with lysates of HEK293T cells with and without GPR37
T1 sequence (O15354 27-613): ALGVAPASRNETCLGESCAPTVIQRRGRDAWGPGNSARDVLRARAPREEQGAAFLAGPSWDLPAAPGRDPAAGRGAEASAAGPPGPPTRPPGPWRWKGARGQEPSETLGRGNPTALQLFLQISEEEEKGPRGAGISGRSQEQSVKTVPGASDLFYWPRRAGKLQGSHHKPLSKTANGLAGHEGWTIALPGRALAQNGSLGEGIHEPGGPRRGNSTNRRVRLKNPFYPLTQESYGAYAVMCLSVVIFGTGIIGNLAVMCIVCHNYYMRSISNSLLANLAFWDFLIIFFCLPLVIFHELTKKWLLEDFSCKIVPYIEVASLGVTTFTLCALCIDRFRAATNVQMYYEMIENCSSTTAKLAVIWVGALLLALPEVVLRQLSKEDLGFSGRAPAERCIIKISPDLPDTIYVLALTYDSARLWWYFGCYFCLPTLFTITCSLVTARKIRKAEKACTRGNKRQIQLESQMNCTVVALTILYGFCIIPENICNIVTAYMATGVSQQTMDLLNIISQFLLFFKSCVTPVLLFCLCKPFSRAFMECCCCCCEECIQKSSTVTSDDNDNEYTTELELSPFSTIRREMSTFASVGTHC

[2] = molecular target: T1, GPR37; assay: Ca2+ imaging in HEK293T cells expressing human GPR37 versus mock; lipid overlay dot blot with GPR37-HEK293T lysate; type: cell-based

| EC50 [2] [nM] | SMILES | lipid overlay dot blot: ligand-coated PVDF membrane with lysates of HEK293T cell [1] |
| --- | --- | --- |
| – | CC/C=C\C[C@H](O)\C=C/C=C/C=C/[C@H](O)C/C=C\C/C=C\CCC(=O)O [NPD1, neuroprotectin D1] | Lipid overlay assays further confirmed direct binding of PDX and NPD1 to GPR37 |
| 23.5 | CC/C=C\C[C@H](O)/C=C/C=C\C=C\[C@@H](O)C/C=C\C/C=C\CCC(=O)O [PDX, Protectin DX] | – |
